The target in assay [1] is T1, h-GABA-A α5β3γ2 (Homo sapiens, UniProt P18507+P31644).
T1 construct: expressed in transfected cells; host or cells: Xenopus laevis oocytes, micro-injected with subunit RNA
The assay is described as follows: [3H]flumazenil competition binding assay on membranes of HEK293 cells expressing GABAA receptors. As to conditions: Table 1; displacement of [3H]-Flumazenil (0.5 nM), HEK293 cells expressing human receptors, means of two determinations. The procedure, abridged: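 Membranes from HEK293 cells transiently expressing human α5β3γ2 were incubated 1 h at 4 °C in Krebs-tris pH 7.5 with 0.5 nM [3H]flumazenil and test compound. Nonspecific binding was set with 10^−5 M diazepam. Bound radioactivity was filtered and counted. Ki is the mean of two determinations.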

Assay [2] addresses T1, h-GABA-A α5β3γ2. Description: Two-electrode voltage clamp electrophysiology in Xenopus oocytes expressing GABAA receptors (modulation of GABA EC20 current). Format: cell-based. As to conditions: Table 1; for Efficacy (GABA) %: % modulation of GABA EC20 = 100*(Fold increase-1); for Fold increase h-GABA-A α5β3γ2 oocyte: Xenopus oocytes, GABA EC20, test compound at approximatively 30 fold its Ki. The procedure, abridged:
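Oocytes injected with α5β3γ2 subunit RNA, recorded 3-5 days later by two-electrode clamp at −80 mV, room temperature, pH 7.4. The compound, at ~30-fold its Ki, was co-applied during a second GABA EC20 pulse. Efficacy was the extremum of the point-by-point second/first current ratio, given as % modulation (100×(fold−1)); n≥3 oocytes.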

Molecules are shown by their SMILES.

The compound `Cn1cc(-c2cnn(Cc3c(-c4ccc(Cl)cc4F)nnn3C)c(=O)c2)cn1` [Example 64, 2-((5-(4-chloro-2-fluoro-phenyl)-3-methyl-triazol-4-yl)methyl)-5-(1-methylpyrazol-4-yl)pyridazin-3-one] gave an inhibitory constant (Ki) in assay [1] of 11.2 nM. Further, in assay [2], the “Efficacy (GABA) %” value came out at 76% and the “Fold increase h-GABA-A α5β3γ2 oocyte” value is recorded as 1.76.

`Cc1nnn(-c2ccc(Cl)cc2F)c1Cn1ncc(-c2cnn(C3CC3)c2)cc1=O` [Example 65, 2-((3-(4-chloro-2-fluoro-phenyl)-5-methyl-triazol-4-yl)methyl)-5-(1-cyclopropylpyrazol-4-yl)pyridazin-3-one] showed a Ki in assay [1] of 47.5 nM. In assay [2], the “Efficacy (GABA) %” value came to 42% and the “Fold increase h-GABA-A α5β3γ2 oocyte” value was found to be 1.42.

For the compound `CCOc1ncc(-c2cnn(Cc3c(-c4ccc(Cl)cc4F)nnn3C)c(=O)c2)cc1C` [Example 66, 2-((5-(4-chloro-2-fluoro-phenyl)-3-methyl-triazol-4-yl)methyl)-5-(6-ethoxy-5-methyl-3-pyridyl)pyridazin-3-one], in assay [1], affinity was put at a Ki of 19 nM. Also, in assay [2], the “Efficacy (GABA) %” value is on record as 143% and the “Fold increase h-GABA-A α5β3γ2 oocyte” value is 2.43.

Compound `Cn1nnc(-c2ccc(Cl)cc2F)c1Cn1ncc(-c2cnn(C3CC3)c2)cc1=O` [Example 67, 2-((5-(4-chloro-2-fluoro-phenyl)-3-methyl-triazol-4-yl)methyl)-5-(1-cyclopropylpyrazol-4-yl)pyridazin-3-one] yielded a Ki in assay [1] of 11 nM. Further, in assay [2], the “Efficacy (GABA) %” value was 55% and the “Fold increase h-GABA-A α5β3γ2 oocyte” value came out at 1.55.

Compound `COc1ncc(-c2cnn(Cc3c(C)nnn3-c3ccc(Cl)cc3F)c(=O)c2)cc1Cl` [Example 68, 2-((3-(4-chloro-2-fluoro-phenyl)-5-methyl-triazol-4-yl)methyl)-5-(5-chloro-6-methoxy-3-pyridyl)pyridazin-3-one] showed a Ki in assay [1] of 32.2 nM. For the same compound, in assay [2], the “Efficacy (GABA) %” value came out at 130% and the “Fold increase h-GABA-A α5β3γ2 oocyte” value is listed as 2.3.

Consider `COc1ncc(-c2cnn(Cc3c(-c4ccc(Cl)cc4F)nnn3C)c(=O)c2)cc1Cl` [Example 69, 2-((5-(4-chloro-2-fluoro-phenyl)-3-methyl-triazol-4-yl)methyl)-5-(5-chloro-6-methoxy-3-pyridyl)pyridazin-3-one], for which affinity in assay [1] was put at a Ki of 4.3 nM. For the same compound, in assay [2], the “Efficacy (GABA) %” value is listed as 125% and the “Fold increase h-GABA-A α5β3γ2 oocyte” value amounted to 2.25.

For `CC(C)OC1CN(c2cnn(Cc3c(-c4ccc(C(F)(F)F)cc4F)nnn3C)c(=O)c2)C1` [Example 70, 2-[[5-[2-fluoro-4-(trifluoromethyl)phenyl]-3-methyl-triazol-4-yl]methyl]-5-(3-isopropoxyazetidin-1-yl)pyridazin-3-one], the affinity in assay [1] corresponds to a Ki of 25 nM. Moreover, in assay [2], the “Efficacy (GABA) %” value is reported as 71% and the “Fold increase h-GABA-A α5β3γ2 oocyte” value turned out to be 1.71.

`Cn1nnc(-c2ccc(C(F)(F)F)cc2F)c1Cn1ncc(N2CC(OC(F)F)C2)cc1=O` [Example 71, 5-[3-(difluoromethoxy)azetidin-1-yl]-2-[[5-[2-fluoro-4-(trifluoromethyl)phenyl]-3-methyl-triazol-4-yl]methyl]pyridazin-3-one] registered a Ki in assay [1] of 12.2 nM. Further, in assay [2], the “Efficacy (GABA) %” value is listed as 75% and the “Fold increase h-GABA-A α5β3γ2 oocyte” value is recorded as 1.75.

In the case of `CCOC1CN(c2cnn(Cc3c(-c4ccc(C(F)(F)F)cc4F)nnn3C)c(=O)c2)C1` [Example 72, 5-(3-ethoxyazetidin-1-yl)-2-[[5-[2-fluoro-4-(trifluoromethyl)phenyl]-3-methyl-triazol-4-yl]methyl]pyridazin-3-one], the Ki in assay [1] amounted to 19.4 nM. For the same compound, in assay [2], the “Efficacy (GABA) %” value is listed as 70% and the “Fold increase h-GABA-A α5β3γ2 oocyte” value is recorded as 1.7.

As for `Cn1nnc(-c2ccc(Cl)cc2F)c1Cn1ncc(N2CC(Oc3cnccn3)C2)cc1=O` [Example 73, 2-[[5-(4-chloro-2-fluoro-phenyl)-3-methyl-triazol-4-yl]methyl]-5-(3-pyrazin-2-yloxyazetidin-1-yl)pyridazin-3-one], the affinity in assay [1] corresponds to a Ki of 7.7 nM. Moreover, in assay [2], the “Efficacy (GABA) %” value is given as 90% and the “Fold increase h-GABA-A α5β3γ2 oocyte” value came to 1.9.

As to `Cn1nnc(-c2ccc(C(F)(F)F)cc2F)c1Cn1ncc(N2CC(OCC(F)(F)F)C2)cc1=O` [Example 74, 2-[[5-[2-fluoro-4-(trifluoromethyl)phenyl]-3-methyl-triazol-4-yl]methyl]-5-[3-(2,2,2-trifluoro-ethoxy)azetidin-1-yl]pyridazin-3-one], the Ki in assay [1] was found to be 11.8 nM. In assay [2], the “Efficacy (GABA) %” value worked out at 86% and the “Fold increase h-GABA-A α5β3γ2 oocyte” value was 1.86.

As for `Cn1nnc(-c2ccc(C(F)(F)F)cc2F)c1Cn1ncc(N2CC3(CCCO3)C2)cc1=O` [Example 75, 2-[[5-[2-fluoro-4-(trifluoromethyl)phenyl]-3-methyl-triazol-4-yl]methyl]-5-(5-oxa-2-azaspiro[3.4]octan-2-yl)pyridazin-3-one], the Ki in assay [1] is 23 nM. Also, in assay [2], the “Efficacy (GABA) %” value came to 73% and the “Fold increase h-GABA-A α5β3γ2 oocyte” value came to 1.73.

In turn, `Cn1nnc(-c2ccc(C(F)(F)F)cc2F)c1Cn1ncc(N2CC(OCC(F)F)C2)cc1=O` [Example 76, 5-[3-(2,2-difluoroethoxy)azetidin-1-yl]-2-[[5-[2-fluoro-4-(trifluoromethyl)phenyl]-3-methyl-triazol-4-yl]methyl]pyridazin-3-one] displayed a Ki in assay [1] of 11.6 nM. In assay [2], the “Efficacy (GABA) %” value stood at 115% and the “Fold increase h-GABA-A α5β3γ2 oocyte” value worked out at 2.15.

For `Cn1nnc(-c2ccc(C(F)(F)F)cc2F)c1Cn1ncc(N2CC(OC3CCC3)C2)cc1=O` [Example 77, 5-[3-(cyclo-butoxy)azetidin-1-yl]-2-[[5-[2-fluoro-4-(trifluoro-methyl)phenyl]-3-methyl-triazol-4-yl]methyl]pyridazin-3-one], the Ki in assay [1] turned out to be 18.4 nM. Further, in assay [2], the “Efficacy (GABA) %” value is 66% and the “Fold increase h-GABA-A α5β3γ2 oocyte” value is reported as 1.66.

`Cn1nnc(-c2ccc(Cl)cc2F)c1Cn1ncc(N2CC(Oc3ccncn3)C2)cc1=O` [Example 78, 2-[[5-(4-chloro-2-fluoro-phenyl)-3-methyl-triazol-4-yl]methyl]-5-(3-pyrimidin-4-yloxyazetidin-1-yl)pyridazin-3-one]: in assay [1], the affinity corresponds to a Ki of 11.2 nM. In assay [2], the “Efficacy (GABA) %” value is 106% and the “Fold increase h-GABA-A α5β3γ2 oocyte” value was determined as 2.06.

In turn, `Cn1nnc(-c2ccc(Cl)cc2F)c1Cn1ncc(N2CC(Oc3cccnn3)C2)cc1=O` [Example 79, 2-((5-(4-chloro-2-fluoro-phenyl)-3-methyl-triazol-4-yl)methyl)-5-(3-pyridazin-3-yloxyazetidin-1-yl)pyridazin-3-one] had a Ki in assay [1] of 11 nM. For the same compound, in assay [2], the “Efficacy (GABA) %” value is 88% and the “Fold increase h-GABA-A α5β3γ2 oocyte” value was found to be 1.88.

In assay [1], `Cn1nnc(-c2ccc(Cl)cc2F)c1Cn1ncc(N2CC(Oc3ccc(Cl)cn3)C2)cc1=O` [Example 80, 2-[[5-(4-chloro-2-fluoro-phenyl)-3-methyl-triazol-4-yl]methyl]-5-[3-[(5-chloro-2-pyridyl)oxy]azetidin-1-yl]pyridazin-3-one] gave a Ki of 16.8 nM. For the same compound, in assay [2], the “Efficacy (GABA) %” value amounted to 72% and the “Fold increase h-GABA-A α5β3γ2 oocyte” value is on record as 1.72.

In turn, `COc1cc(-c2cnn(Cc3c(-c4ccc(C)nc4)nnn3C)c(=O)c2)ccn1` [Example 81, 5-(2-methoxy-4-pyridyl)-2-((3-methyl-5-(6-methyl-3-pyridyl)triazol-4-yl)methyl)pyridazin-3-one] displayed a Ki in assay [1] of 19.9 nM. Moreover, in assay [2], the “Efficacy (GABA) %” value was 110% and the “Fold increase h-GABA-A α5β3γ2 oocyte” value stood at 2.1.

`COc1ncc(-c2cnn(Cc3c(-c4ccc(C)nc4)nnn3C)c(=O)c2)cc1Cl` [Example 82, 5-(5-chloro-6-methoxy-3-pyridyl)-2-((3-methyl-5-(6-methyl-3-pyridyl)triazol-4-yl)methyl)pyridazin-3-one] had a Ki in assay [1] of 31 nM. In assay [2], the “Efficacy (GABA) %” value was found to be 236% and the “Fold increase h-GABA-A α5β3γ2 oocyte” value is reported as 3.36.

In the case of `Cn1nnc(-c2ccc(C(F)(F)F)cc2F)c1Cn1ncc(N2CC(Oc3cccnn3)C2)cc1=O` [Example 83, 2-[[5-[2-fluoro-4-(trifluoromethyl)phenyl]-3-methyl-triazol-4-yl]methyl]-5-(3-pyridazin-3-yloxyazetidin-1-yl)pyridazin-3-one], the Ki in assay [1] turned out to be 14.7 nM. Further, in assay [2], the “Efficacy (GABA) %” value is reported as 108% and the “Fold increase h-GABA-A α5β3γ2 oocyte” value came to 2.08.

For `Cn1nnc(-c2ccc(C(F)(F)F)cc2F)c1Cn1ncc(N2CC(Oc3ccccn3)C2)cc1=O` [Example 84, 2-[[5-[2-fluoro-4-(trifluoromethyl)phenyl]-3-methyl-triazol-4-yl]methyl]-5-[3-(2-pyridyloxy)azetidin-1-yl]pyridazin-3-one], affinity in assay [1] was put at a Ki of 10.2 nM. In addition, in assay [2], the “Efficacy (GABA) %” value stood at 73% and the “Fold increase h-GABA-A α5β3γ2 oocyte” value is 1.73.

With `CCn1nnc(-c2ccc(Cl)cc2F)c1Cn1ncc(N2CC(OC3CCC3)C2)cc1=O` [Example 85, 2-[[5-(4-chloro-2-fluoro-phenyl)-3-ethyl-triazol-4-yl]methyl]-5-[3-(cyclobutoxy)azetidin-1-yl]pyridazin-3-one], the Ki in assay [1] was determined as 18.5 nM. Moreover, in assay [2], the “Efficacy (GABA) %” value came out at 143% and the “Fold increase h-GABA-A α5β3γ2 oocyte” value worked out at 2.43.

The record behind these values is patent US20230135093A1, “TRIAZOLYL DERIVATIVES AS GABA A ALPHA5 PAM” (Hoffmann-La Roche Inc., priority 2020, published 2023).
